# In patent US8802597B2, “Herbicidal pyrimidines” (E I du Pont de Nemours and Company, priority 2003, dated 2014):
# Where two headings read alike, the source gives them in different places.
# Key:
# Type in all cases: in vivo
# [1] = system: rice (Oryza sativa); assay: Test B flooded paddy test; settings: Oryza sativa, Flood, 1000 g ai/ha; scale 0 to 100; read-out: Plant response rating, Rice
# Outline: (§1)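 Plants were grown to the 2-leaf stage before treatment, then kept in a greenhouse for 13 to 15 days. Injury was rated visually against untreated controls on a 0 to 100 scale, where 0 is no effect and 100 is complete control.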
# [2] = system: umbrella sedge (Cyperus difformis); assay: Test B flooded paddy test; settings: Cyperus difformis, Flood, 1000 g ai/ha; scale 0 to 100; read-out: Plant response rating, Sedge, Umbrella
# Outline: as §1
# [3] = system: duck salad (Heteranthera limosa); assay: Test B flooded paddy test; settings: Heteranthera limosa, Flood, 1000 g ai/ha; scale 0 to 100; read-out: Plant response rating, Ducksalad
# Outline: as §1
# [4] = system: barnyardgrass (Echinochloa crus-galli); assay: Test B flooded paddy test; settings: Echinochloa crus-galli, Flood, 1000 g ai/ha; scale 0 (no effect) to 100 (complete control); read-out: Plant response rating, Barnyardgrass
# Outline: as §1
# [5] = system: giant foxtail (Setaria faberii); assay: Test B pre/postemergence; settings: Setaria faberi; for pest or weed control at 62 g/ha: 62 g ai/ha; for pest or weed control at 250 g/ha: 250 g ai/ha
# Outline: (§2)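 Scores reflect visual comparison with untreated controls, where 0 means no effect and 100 complete control. Plants stayed 13 to 15 days in the greenhouse after pre- or postemergence treatment with compounds carried in a non-phytotoxic solvent and surfactant.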
# [6] = system: lambsquarters (Chenopodium album); assay: Test B pre/postemergence; settings: Chenopodium album; for pest or weed control at 62 g/ha: 62 g ai/ha; for pest or weed control at 250 g/ha: 250 g ai/ha
# Outline: as §2
# [7] = system: velvetleaf (Abutilon theophrasti); assay: Test B pre/postemergence; settings: Abutilon theophrasti; for pest or weed control at 62 g/ha: 62 g ai/ha; for pest or weed control at 250 g/ha: 250 g ai/ha
# Outline: as §2
# [8] = system: pigweed (Amaranthus retroflexus); assay: Test B pre/postemergence; settings: Amaranthus retroflexus; for pest or weed control at 62 g/ha: 62 g ai/ha; for pest or weed control at 250 g/ha: 250 g ai/ha
# Outline: as §2
# [9] = system: wheat (Triticum aestivum); assay: Test B pre/postemergence; settings: Triticum aestivum; for plant injury at 62 g/ha: 62 g ai/ha; for plant injury at 250 g/ha: 250 g ai/ha
# Outline: as §2
# [10] = system: Surinam grass (Brachiaria decumbens); assay: Test B pre/postemergence; settings: Urochloa decumbens; for pest or weed control at 62 g/ha: 62 g ai/ha; for pest or weed control at 250 g/ha: 250 g ai/ha
# Outline: as §2
# [11] = system: morningglory (Ipomoea coccinea); assay: Test B pre/postemergence; settings: Ipomoea; for pest or weed control at 62 g/ha: 62 g ai/ha; for pest or weed control at 250 g/ha: 250 g ai/ha
# Outline: as §2
# [12] = system: crabgrass (Digitaria sanguinalis); assay: Test B pre/postemergence; settings: Digitaria sanguinalis; for pest or weed control at 62 g/ha: 62 g ai/ha; for pest or weed control at 250 g/ha: 250 g ai/ha
# Outline: as §2
# [13] = system: corn (Zea mays); assay: Test B pre/postemergence; settings: Zea mays; for Corn plant response rating (crop injury, 0 = no effect, 100 = complete kill) at 250 g/ha: 250 g ai/ha
# Outline: as §2
# [14] = system: barnyardgrass (Echinochloa crus-galli); assay: Test B pre/postemergence; settings: Echinochloa crus-galli; for pest or weed control at 62 g/ha: 62 g ai/ha; for pest or weed control at 250 g/ha: 250 g ai/ha
# Outline: as §2
# [15] = system: cocklebur (Xanthium strumarium); assay: Test B pre/postemergence; settings: Xanthium strumarium; for pest or weed control at 62 g/ha: 62 g ai/ha; for pest or weed control at 250 g/ha: 250 g ai/ha
# Outline: as §2
# [16] = system: wild oat (Avena fatua); assay: Test B postemergence; settings: Avena fatua, post-emergence
# Outline: as §2
# [17] = system: blackgrass (Alopecurus myosuroides); assay: Test B postemergence; settings: Alopecurus myosuroides, post-emergence
# Outline: as §2
# [18] = pre-emergence, Preemergence, scale 0 to 100 (0 no effect, 100 complete control), read-out: Plant response rating, Wheat
# [19] = pre-emergence, Preemergence, scale 0 to 100 (0 no effect, 100 complete control), read-out: Plant response rating, Barnyardgrass
smiles,measurement,setting,value
"CCOC(=O)c1nc(C2CC2)nc(N)c1Br [Compound 1, ethyl 6-amino-5-bromo-2-cyclopropyl-4-pyrimidinecarboxylate]",plant injury at 1000 g/ha,[1],70%
same,pest or weed control at 1000 g/ha,[2],20%
same,pest or weed control at 1000 g/ha,[3],80%
same,pest or weed control at 1000 g/ha,[4],80%
same,pest or weed control at 62 g/ha,"[5]; post-emergence, Postemergence, scale 0 to 100 (0 no effect, 100 complete control), read-out: Foxtail, Giant plant response rating",50%
same,pest or weed control at 250 g/ha,"[5]; post-emergence, Postemergence, scale 0 to 100, read-out: Plant response rating, Foxtail, Giant",80%
same,pest or weed control at 250 g/ha,"[5]; pre-emergence, Preemergence, scale 0 to 100 (0 no effect, 100 complete control), read-out: Plant response rating, Foxtail, Giant",90%
same,pest or weed control at 62 g/ha,"[5]; pre-emergence, Preemergence, scale 0 to 100, 0 no effect, 100 complete control, read-out: Plant response rating, Foxtail, Giant",30%
same,pest or weed control at 62 g/ha,"[6]; post-emergence, Postemergence, scale 0 to 100 (0 no effect, 100 complete control), read-out: Lambsquarters plant response rating",100%
same,pest or weed control at 250 g/ha,"[6]; post-emergence, Postemergence, scale 0 to 100, read-out: Plant response rating, Lambsquarters",100%
same,pest or weed control at 62 g/ha,"[6]; pre-emergence, Preemergence, scale 0 to 100, 0 no effect, 100 complete control, read-out: Plant response rating, Lambsquarters",100%
same,pest or weed control at 250 g/ha,"[6]; pre-emergence, Preemergence, scale 0 to 100 (0 no effect, 100 complete control), read-out: Plant response rating, Lambsquarters",100%
same,pest or weed control at 62 g/ha,"[7]; post-emergence, Postemergence, scale 0 to 100 (0 no effect, 100 complete control), read-out: Velvetleaf plant response rating",90%
same,pest or weed control at 250 g/ha,"[7]; post-emergence, Postemergence, scale 0 to 100, read-out: Plant response rating, Velvetleaf",90%
same,pest or weed control at 62 g/ha,"[7]; pre-emergence, Preemergence, scale 0 to 100, 0 no effect, 100 complete control, read-out: Plant response rating, Velvetleaf",90%
same,pest or weed control at 250 g/ha,"[7]; pre-emergence, Preemergence, scale 0 to 100 (0 no effect, 100 complete control), read-out: Plant response rating, Velvetleaf",100%
same,pest or weed control at 62 g/ha,"[8]; post-emergence, Postemergence, scale 0 to 100 (0 no effect, 100 complete control), read-out: Pigweed plant response rating",90%
same,pest or weed control at 250 g/ha,"[8]; post-emergence, Postemergence, scale 0 to 100, read-out: Plant response rating, Pigweed",100%
same,pest or weed control at 62 g/ha,"[8]; pre-emergence, Preemergence, scale 0 to 100, 0 no effect, 100 complete control, read-out: Plant response rating, Pigweed",90%
same,pest or weed control at 250 g/ha,"[8]; pre-emergence, Preemergence, scale 0 to 100 (0 no effect, 100 complete control), read-out: Plant response rating, Pigweed",100%
same,plant injury at 62 g/ha,"[9]; post-emergence, Postemergence, scale 0 to 100 (0 no effect, 100 complete control), read-out: Wheat plant response rating",30%
same,plant injury at 250 g/ha,"[9]; post-emergence, Postemergence, scale 0 to 100, read-out: Plant response rating, Wheat",70%
same,plant injury at 62 g/ha,[9]; [18],30%
same,plant injury at 250 g/ha,[9]; [18],60%
same,pest or weed control at 62 g/ha,"[10]; post-emergence, Postemergence, scale 0 to 100 (0 no effect, 100 complete control), read-out: Surinam Grass plant response rating",60%
same,pest or weed control at 250 g/ha,"[10]; post-emergence, Postemergence, scale 0 to 100, read-out: Plant response rating, Surinam Grass",90%
same,pest or weed control at 250 g/ha,"[10]; pre-emergence, Preemergence, scale 0 to 100 (0 no effect, 100 complete control), read-out: Plant response rating, Surinam Grass",80%
same,pest or weed control at 62 g/ha,"[10]; pre-emergence, Preemergence, scale 0 to 100, 0 no effect, 100 complete control, read-out: Plant response rating, Surinam Grass",50%
same,pest or weed control at 62 g/ha,"[11]; post-emergence, Postemergence, scale 0 to 100 (0 no effect, 100 complete control), read-out: Morningglory plant response rating",90%
same,pest or weed control at 250 g/ha,"[11]; post-emergence, Postemergence, scale 0 to 100, read-out: Plant response rating, Morningglory",100%
same,pest or weed control at 62 g/ha,"[11]; pre-emergence, Preemergence, scale 0 to 100, 0 no effect, 100 complete control, read-out: Plant response rating, Morningglory",90%
same,pest or weed control at 250 g/ha,"[11]; pre-emergence, Preemergence, scale 0 to 100 (0 no effect, 100 complete control), read-out: Plant response rating, Morningglory",100%
same,pest or weed control at 62 g/ha,"[12]; post-emergence, Postemergence, scale 0 to 100 (0 no effect, 100 complete control), read-out: Crabgrass plant response rating",70%
same,pest or weed control at 250 g/ha,"[12]; post-emergence, Postemergence, scale 0 to 100, read-out: Plant response rating, Crabgrass",90%
same,pest or weed control at 62 g/ha,"[12]; pre-emergence, Preemergence, scale 0 to 100, 0 no effect, 100 complete control, read-out: Plant response rating, Crabgrass",90%
same,pest or weed control at 250 g/ha,"[12]; pre-emergence, Preemergence, scale 0 to 100 (0 no effect, 100 complete control), read-out: Plant response rating, Crabgrass",90%
same,plant injury at 62 g/ha,"[13]; post-emergence, Postemergence, 62 g ai/ha, scale 0 to 100 (0 no effect, 100 complete control), read-out: Corn plant response rating",30%
same,"Corn plant response rating (crop injury, 0 = no effect, 100 = complete kill) at 250 g/ha","[13]; post-emergence, Postemergence, scale 0 to 100",70%
same,"Corn plant response rating (crop injury, 0 = no effect, 100 = complete kill) at 62 g/ha","[13]; pre-emergence, Preemergence, 62 g ai/ha, scale 0 to 100, 0 no effect, 100 complete control",20%
same,"Corn plant response rating (crop injury, 0 = no effect, 100 = complete kill) at 250 g/ha","[13]; pre-emergence, Preemergence, scale 0 to 100 (0 no effect, 100 complete control)",80%
same,pest or weed control at 62 g/ha,"[14]; post-emergence, Postemergence, scale 0 to 100 (0 no effect, 100 complete control), read-out: Barnyardgrass plant response rating",50%
same,pest or weed control at 250 g/ha,"[14]; post-emergence, Postemergence, scale 0 to 100, read-out: Plant response rating, Barnyardgrass",90%
same,pest or weed control at 62 g/ha,[14]; [19],60%
same,pest or weed control at 250 g/ha,[14]; [19],90%
same,pest or weed control at 62 g/ha,"[15]; post-emergence, Postemergence, scale 0 to 100 (0 no effect, 100 complete control), read-out: Cocklebur plant response rating",90%
same,pest or weed control at 250 g/ha,"[15]; post-emergence, Postemergence, scale 0 to 100, read-out: Plant response rating, Cocklebur",90%
same,pest or weed control at 62 g/ha,"[15]; pre-emergence, Preemergence, scale 0 to 100, 0 no effect, 100 complete control, read-out: Plant response rating, Cocklebur",90%
same,pest or weed control at 250 g/ha,"[15]; pre-emergence, Preemergence, scale 0 to 100 (0 no effect, 100 complete control), read-out: Plant response rating, Cocklebur",100%
same,pest or weed control at 62 g/ha,"[16]; 62 g ai/ha, scale 0 to 100 (0 no effect, 100 complete control), read-out: Oat, Wild plant response rating",20%
same,pest or weed control at 250 g/ha,"[16]; 250 g ai/ha, scale 0 to 100, read-out: Plant response rating, Oat, Wild",60%
same,pest or weed control at 62 g/ha,"[17]; 62 g ai/ha, scale 0 to 100 (0 no effect, 100 complete control), read-out: Blackgrass plant response rating",40%
same,pest or weed control at 250 g/ha,"[17]; 250 g ai/ha, scale 0 to 100, read-out: Plant response rating, Blackgrass",70%
